According to patent US20090191193A1, “Aryl Vinyl Sulfides, Sulfones, Sulfoxides and Sulfonamides, Derivatives Thereof and Therapeutic Uses Thereof” (TEMPLE UNIVERSITY-OF THE COMMONWEALTH SYSTEM OF HIGHER …, priority 2006, published 2009):

Experiments:
[1] = test system: K562 (chronic myelogenous leukaemia); assay: Effect on tumor cell lines, viable cell count by trypan blue exclusion (Latham et al.): K562; format: cell-based; settings: K562 chronic myelogenous leukaemia cells, viable cell count 96 hours after treatment
Experimental: (§1) The effect of the compounds of the invention on tumor cells was determined by the assay described by Latham et al., Oncogene 12:827-837 (1996). Tumor cells DU145 (prostate cancer), K562 (chronic myelogenous leukaemia), BT20 (breast carcinoma), H157 (non small cell lung carcinoma), or DLD1 (colon carcinoma) were plated in 6-well dishes at a cell density of 1.0×10^5 cells per 35-mm^2 well. […] The total number of viable cells was determined 96 hours later by trypsinizing the wells and counting the number of viable cells, as determined by trypan blue exclusion, using a hemacytometer. Normal HFL cells were treated with the same compounds under the same conditions of concentration and time.

DU145 (prostate cancer) = assay: Effect on tumor cell lines, viable cell count by trypan blue exclusion (Latham et al.): DU145; format: cell-based; settings: DU145 prostate cancer cells, viable cell count 96 hours after treatment
Experimental: as §1

Row | Compound | melting point | IC50 ([1]; Homo sapiens, K562, 96 h) | IC50 (DU145 (prostate cancer); Homo sapiens, DU-145, 96 h) | IC50 [1] | IC50 (DU145 (prostate cancer))
1 | N#C/C(=C\c1ccccc1OCc1ccccc1)S(=O)(=O)Nc1ccc(F)cc1 [Example 230] | 127 to 129 °C | 10 to 25 µM | 25 to 50 µM |  | 
2 | COc1ccc(NS(=O)(=O)/C(C#N)=C/c2ccccc2O)cc1 [Example 292] | 197 to 198 °C | 50 to 100 µM | > 100 µM |  | 
3 | COc1cc(OC)c(/C=C(\C#N)S(=O)(=O)Nc2ccccc2Oc2ccccc2)c(OC)c1 [Example 208] | 154 to 156 °C | 25 to 50 µM | 50 to 100 µM |  | 
4 | COc1ccc(OC)c(/C=C(\C#N)S(=O)(=O)Cc2ccc(Cl)cc2Cl)c1 [Example 106] | 132 to 137 °C | 50 to 100 µM | 50 to 100 µM |  | 
5 | Cc1ccc(NS(=O)(=O)/C(C#N)=C/c2cc(Cl)cc(Cl)c2Cl)c(C)c1 [Example 263] | 171 to 173 °C | < 1 µM | < 1 µM |  | 
6 | N#C/C(=C\c1c[nH]c2ccccc12)S(=O)(=O)Nc1ccc(Cl)cc1 [Example 205] | 216 to 217 °C | 25 to 50 µM | 50 to 100 µM |  | 
7 | COc1ccc(NS(=O)(=O)/C(C#N)=C/c2cc(Cl)cc(Cl)c2Cl)cc1 [Example 294] | 180 to 181 °C | < 1 µM |  |  | 
8 | N#C/C(=C\c1ccc(O)cc1O)S(=O)(=O)Cc1ccc(F)cc1 [Example 83] | 225 to 234 °C | 50 to 100 µM | 50 to 100 µM |  | 
9 | COc1cc(OC)c(OC)cc1/C=C(\C#N)S(=O)(=O)Nc1ccc(C)cc1C [Example 258] | 161 to 163 °C | 50 to 100 µM | > 100 µM |  | 
10 | COc1ccc(NS(=O)(=O)/C(C#N)=C/c2ccccc2OCc2ccccc2)cc1 [Example 277] | 111 to 112 °C | 10 to 25 µM | 10 to 25 µM |  | 
11 | N#C/C(=C\c1c[nH]c2ccccc12)S(=O)(=O)Cc1ccc(F)cc1 [Example 81] | 140 to 152 °C | 50 to 100 µM | 50 to 100 µM |  | 
12 | COc1cc(OC)c(/C=C(\C#N)S(=O)(=O)Nc2ccc(C)cc2C)c(OC)c1 [Example 254] | 132 to 134 °C | 50 to 100 µM | 50 to 100 µM |  | 
13 | CCOC(=O)c1c(C)[nH]c(/C=C(\C#N)S(=O)(=O)Cc2ccc(F)cc2)c1C [Example 37, (E)-2-[(4-fluorophenyl)methanesulfonyl]-3-(4-ethoxycarbonyl-3,5-dimethylpyrrol-2-yl)acrylonitrile] |  | 50 to 100 µM | 50 to 100 µM |  | 
14 | N#C/C(=C\c1ccc(-c2ccccc2)cc1)S(=O)(=O)Nc1ccc(Br)cc1 [Example 220] |  |  |  | 10 to 25 µM | 50 to 100 µM
15 | Cc1ccoc1/C=C(\C#N)S(=O)(=O)Cc1ccc(Cl)cc1Cl [Example 103] | 184 to 189 °C | 50 to 100 µM | > 100 µM |  | 
16 | Cc1ccc(C)c(/C=C(\C#N)S(=O)(=O)Cc2ccc(Cl)cc2Cl)c1 [Example 96] | 142 to 149 °C | 50 to 100 µM | > 100 µM |  | 
17 | N#C/C(=C\c1ccccc1O)S(=O)(=O)Nc1ccc(Br)cc1 [Example 228] | 169 to 170 °C | 25 to 50 µM | 25 to 50 µM |  | 
18 | N#C/C(=C\c1ccccc1Cl)S(=O)(=O)Cc1ccc(Br)cc1 [Example 144] | 143 to 147 °C | 25 to 50 µM | > 100 µM |  | 
19 | Cc1ccsc1/C=C(\C#N)S(=O)(=O)Cc1ccc(Cl)cc1Cl [Example 102] |  |  |  | 50 to 100 µM | > 100 µM
20 | COc1ccc(NS(=O)(=O)/C(C#N)=C/c2ccc(SC)cc2)cc1 [Example 293] |  |  |  | > 100 µM | > 100 µM
21 | Cc1ccsc1/C=C(\C#N)S(=O)(=O)Cc1ccc(Cl)cc1 [Example 120] |  |  |  | 25 to 50 µM | 50 to 100 µM
22 | N#C/C(=C\c1ccc(O)c(O)c1)S(=O)(=O)Cc1ccc(Cl)cc1 [Example 24] | 178 to 180 °C |  | 10 µM |  | 
23 | CN(C)c1ccc(/C=C(\C#N)S(=O)(=O)Cc2ccc(Cl)cc2)cc1 [Example 58] |  | 25 to 50 µM | 50 to 100 µM |  | 
24 | CSc1ccc(/C=C(\C#N)S(=O)(=O)Cc2ccc(Cl)cc2Cl)cc1 [Example 76] |  |  |  | 50 to 100 µM | 50 to 100 µM

Row | Compound | melting point | IC50 ([1]; Homo sapiens, K562, 96 h) | IC50 (DU145 (prostate cancer); Homo sapiens, DU-145, 96 h) | IC50 [1] | IC50 (DU145 (prostate cancer))
25 | COc1ccc(CS(=O)(=O)/C(C#N)=C/c2ccc3oc(=O)[nH]c3c2)cc1OC [Example 30] | 174 to 176 °C |  | 100 µM |  | 
26 | COc1ccc(NS(=O)(=O)/C(C#N)=C/c2ccc(-c3ccccc3)cc2)cc1 [Example 286] |  |  |  | 50 to 100 µM | 50 to 100 µM
27 | CSc1ccc(/C=C(\C#N)S(=O)(=O)Nc2ccc(C)cc2C)cc1 [Example 276] |  |  |  | > 100 µM | > 100 µM
28 | Cc1ccc(NS(=O)(=O)/C(C#N)=C/c2ccc(-c3ccccc3)cc2)c(C)c1 [Example 260] |  |  |  | 25 to 50 µM | 50 to 100 µM
29 | COc1ccc(CS(=O)(=O)/C(C#N)=C/c2ccc(-c3ccccc3)cc2)cc1 [Example 140] |  |  |  | > 100 µM | > 100 µM
30 | N#C/C(=C\c1ccc(-c2ccccc2)cc1)S(=O)(=O)Nc1ccc(F)cc1 [Example 239] |  |  |  | 10 to 25 µM | 50 to 100 µM
31 | COc1ccc(CS(=O)(=O)/C(C#N)=C/c2ccc(F)cc2F)cc1 [Example 2] | 138 to 140 °C |  | 100 µM |  | 
32 | CSc1ccc(/C=C(\C#N)S(=O)(=O)Cc2ccc(Cl)cc2)cc1 [Example 43] |  |  |  | 50 to 100 µM | > 100 µM
33 | COc1ccc(CS(=O)(=O)/C(C#N)=C/c2ccc3[nH]c(=O)oc3c2)cc1 [Example 23, (E)-2-[(4-methoxyphenyl)methanesulfonyl]-3-(2-benzoxazolon-6-yl)acrylonitrile] | 208 to 210 °C |  | 50 µM |  | 
34 | COc1ccc(CS(=O)(=O)/C(C#N)=C/c2ccc3oc(=O)[nH]c3c2)cc1 [Example 22] | 210 to 212 °C |  | 10 µM |  | 
35 | COc1cc(OC)c(/C=C(\[N+](=O)[O-])S(=O)(=O)Cc2ccc(F)cc2)c(OC)c1 [Example 189] |  | 5 µM | 2.5 µM |  | 
36 | COc1ccc(CS(=O)(=O)/C(C#N)=C/c2ccc(N)cc2)cc1 [Example 5] | 140 to 142 °C |  | 75 µM |  | 
37 | COc1ccc(CS(=O)(=O)/C(C#N)=C/c2ccc(O)c(O)c2)cc1 [Example 25] | 144 to 146 °C |  | 10 µM |  | 
38 | COc1ccc(NS(=O)(=O)/C(C#N)=C/c2ccc(C)c(C)c2)cc1 [Example 203] | 152 to 154 °C |  | > 100 µM |  | 
39 | COc1ccc(CS(=O)(=O)/C(C#N)=C/c2c(OC)cc(OC)cc2OC)cc1 [Example 1] | 178 to 180 °C |  | 25 µM |  | 
40 | Cc1ccsc1/C=C(\C#N)S(=O)(=O)Cc1ccccc1 [Example 127] |  |  |  | > 100 µM | > 100 µM
41 | N#C/C(=C\c1c(F)c(F)c(F)c(F)c1F)S(=O)(=O)Cc1ccc(F)cc1 [Example 33] | 156 to 158 °C |  | 2.5 µM |  | 
42 | COc1ccc(CS(=O)(=O)/C(=C/c2c(OC)cc(OC)cc2OC)[N+](=O)[O-])cc1 [Example 188] |  | 2 µM | < 1 µM |  | 
43 | COc1cc(OC)c(/C=C(\[N+](=O)[O-])S(=O)(=O)c2ccc(C)cc2)c(OC)c1 [Example 185] | 192 to 194 °C |  | 50 µM |  | 
44 | CSc1ccc(/C=C(\C#N)S(=O)(=O)Cc2ccc(F)cc2)cc1 [Example 87] |  |  |  | 25 to 50 µM | 25 to 50 µM
45 | N#C/C(=C\c1ccc(-c2ccccc2)cc1)S(=O)(=O)Cc1ccccc1 [Example 138] |  |  |  | > 100 µM | > 100 µM
46 | COc1ccc(CS(=O)(=O)/C(C#N)=C/c2ccc(F)cc2Cl)cc1 [Example 15] | 138 to 140 °C |  | 25 µM |  | 
47 | N#C/C(=C\c1ccc(-c2ccccc2)cc1)S(=O)(=O)Cc1ccc(Cl)cc1 [Example 67] |  |  |  | > 100 µM | > 100 µM
48 | COc1ccc(CS(=O)(=O)/C(C#N)=C/c2c(OC)cccc2OC)cc1 [Example 8] | 108 to 110 °C |  | 75 µM |  | 
